Results reported in ChEMBL document CHEMBL4673253, “Discovery of EST73502, a Dual μ-Opioid Receptor Agonist and σ Receptor Antagonist Clinical Candidate for the Treatment of Pain” (J Med Chem, 2020).

Legend:
[1] = molecular target: T1, Mu-type opioid receptor (Homo sapiens, UniProt P35372); assay: Agonist activity at human MOR expressed in CHOK1 cells assessed as […] of cAMP accumulation at 1 uM incubated for 45 mins by HTRF assay; format: functional, cell-based; conditions: CHO-K1
[2] = molecular target: T1, Mu-type opioid receptor; assay: Displacement of [3H]-DAMGO from human MOR expressed in CHOK1 cell membranes at 1 uM incubated for 60 mins by liquid scintillation counting method; conditions: CHO-K1, Cell membrane
[3] = molecular target: T1, Mu-type opioid receptor; assay: Agonist activity at human MOR expressed in CHOK1 cells assessed as […] of cAMP accumulation incubated for 45 mins by HTRF assay; format: functional, cell-based, CHO-K1
[4] = molecular target: T2, Alpha-1A adrenergic receptor (Homo sapiens) (UniProt P35348); assay: Binding affinity to human alpha1A adrenoreceptor expressed in membranes assessed as inhibition of [3H]-prazosin binding incubated for 90 mins by scintillation counting method; set-up: concentration or dose not given beside the values; conditions: Cell membrane
T2 sequence (whole entry): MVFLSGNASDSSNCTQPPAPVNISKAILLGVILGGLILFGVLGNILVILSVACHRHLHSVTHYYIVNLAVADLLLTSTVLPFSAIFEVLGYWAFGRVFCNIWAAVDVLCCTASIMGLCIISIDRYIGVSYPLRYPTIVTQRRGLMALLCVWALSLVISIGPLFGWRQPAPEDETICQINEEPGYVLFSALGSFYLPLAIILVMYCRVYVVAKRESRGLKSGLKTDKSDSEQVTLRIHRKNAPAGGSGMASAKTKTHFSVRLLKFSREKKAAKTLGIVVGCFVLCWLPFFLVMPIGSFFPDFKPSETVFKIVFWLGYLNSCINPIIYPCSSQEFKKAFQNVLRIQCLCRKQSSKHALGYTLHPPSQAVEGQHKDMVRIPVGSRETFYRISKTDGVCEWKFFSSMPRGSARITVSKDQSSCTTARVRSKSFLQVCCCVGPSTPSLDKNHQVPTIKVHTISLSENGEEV

[5] = molecular target: T1, Mu-type opioid receptor; assay: Displacement of [3H]-DAMGO from human MOR expressed in CHOK1 cell membranes incubated for 60 mins by liquid scintillation counting method; set-up: species or system CHO-K1, Cell membrane
[6] = molecular target: T3, Sigma non-opioid intracellular receptor 1 (Homo sapiens, UniProt Q99720); assay: Displacement of 3H](+)-pentazocine from human sigma1 receptor expressed in HEK293 cell membranes incubated for 120 mins by liquid scintillation counting method; set-up: species or system Cell membrane
T3 sequence (Q99720 whole entry): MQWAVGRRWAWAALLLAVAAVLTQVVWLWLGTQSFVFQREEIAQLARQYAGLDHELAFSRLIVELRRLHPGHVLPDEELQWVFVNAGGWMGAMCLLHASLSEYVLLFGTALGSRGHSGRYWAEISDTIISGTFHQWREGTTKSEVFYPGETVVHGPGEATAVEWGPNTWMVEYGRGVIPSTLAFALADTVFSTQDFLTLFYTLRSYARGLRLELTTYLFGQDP

[7] = molecular target: T1, Mu-type opioid receptor; assay: Agonist activity at human MOR expressed in CHOK1 cells assessed as […] of cAMP accumulation incubated for 45 mins by HTRF assay relative to DAMGO; format: functional, cell-based; conditions: CHO-K1, filed as agonist
[8] = molecular target: hERG (KCNH2) (Homo sapiens, UniProt Q12809); assay: Inhibition of human ERG expressed in CHO cells at 10 uM at -80 mV holding potential by whole cell patch clamp assay; format: cell-based; conditions: CHO cells expressing human ERG
Chain of hERG (KCNH2) (Q12809 whole entry): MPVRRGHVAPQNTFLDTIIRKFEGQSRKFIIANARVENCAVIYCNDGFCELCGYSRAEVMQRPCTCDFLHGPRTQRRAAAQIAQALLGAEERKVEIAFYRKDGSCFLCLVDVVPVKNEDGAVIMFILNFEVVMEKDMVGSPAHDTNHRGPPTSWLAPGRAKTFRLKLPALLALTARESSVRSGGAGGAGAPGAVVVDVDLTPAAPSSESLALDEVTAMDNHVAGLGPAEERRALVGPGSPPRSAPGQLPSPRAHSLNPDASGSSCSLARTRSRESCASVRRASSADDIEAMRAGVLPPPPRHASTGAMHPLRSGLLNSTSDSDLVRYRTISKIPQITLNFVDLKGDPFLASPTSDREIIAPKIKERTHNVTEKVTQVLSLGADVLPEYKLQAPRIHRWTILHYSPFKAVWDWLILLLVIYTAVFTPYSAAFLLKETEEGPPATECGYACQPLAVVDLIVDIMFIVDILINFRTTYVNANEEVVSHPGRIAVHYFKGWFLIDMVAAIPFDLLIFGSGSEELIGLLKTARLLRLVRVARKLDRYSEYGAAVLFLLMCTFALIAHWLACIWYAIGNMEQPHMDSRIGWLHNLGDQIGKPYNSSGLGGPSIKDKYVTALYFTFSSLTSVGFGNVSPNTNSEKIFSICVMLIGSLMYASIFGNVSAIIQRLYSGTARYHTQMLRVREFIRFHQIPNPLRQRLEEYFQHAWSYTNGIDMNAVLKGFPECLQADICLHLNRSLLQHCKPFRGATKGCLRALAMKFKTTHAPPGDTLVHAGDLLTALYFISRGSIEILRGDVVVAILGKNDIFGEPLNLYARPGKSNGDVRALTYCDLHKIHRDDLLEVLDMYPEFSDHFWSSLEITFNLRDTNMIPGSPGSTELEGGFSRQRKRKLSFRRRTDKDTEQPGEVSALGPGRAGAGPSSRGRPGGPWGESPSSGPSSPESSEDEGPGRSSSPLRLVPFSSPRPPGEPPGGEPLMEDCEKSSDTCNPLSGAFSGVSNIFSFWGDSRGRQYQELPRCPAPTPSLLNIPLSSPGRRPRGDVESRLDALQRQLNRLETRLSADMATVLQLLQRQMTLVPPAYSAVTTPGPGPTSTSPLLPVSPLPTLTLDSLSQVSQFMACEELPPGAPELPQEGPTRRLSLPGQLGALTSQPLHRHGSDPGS

[9] = molecular target: Voltage-gated inwardly rectifying potassium channel KCNH2 (Homo sapiens, UniProt Q12809)
Chain of Voltage-gated inwardly rectifying potassium channel KCNH2 (Q12809 whole entry): as above
Description: Inhibition of human ERG expressed in CHO cells at -80 mV holding potential by whole cell patch clamp assay

[10] = molecular target: T1, Mu-type opioid receptor; assay: Agonist activity at human MOR expressed in CHOK1 cells assessed as […] of cAMP accumulation at 10 uM incubated for 45 mins by HTRF assay; format: functional, cell-based; conditions: CHO-K1
[11] = molecular target: T1, Mu-type opioid receptor; assay: Displacement of [3H]-DAMGO from human MOR expressed in CHOK1 cell membranes at 10 uM incubated for 60 mins by liquid scintillation counting method; conditions: CHO-K1, Cell membrane
[12] = molecular target: T3, Sigma non-opioid intracellular receptor 1; assay: Displacement of 3H](+)-pentazocine from human sigma1 receptor expressed in HEK293 cell membranes at 10 uM incubated for 120 mins by liquid scintillation counting method; conditions: Cell membrane
[13] = Toxicity in CD1 mouse assessed as inhibition of intestinal transit by measuring percentage of distance traveled by charcoal meal at 20 mg/kg, po; format: organism-based; conditions: in vivo
[14] = system: Mus musculus; assay: Antinociceptive activity in CD1 mouse PSNL model assessed as reduction in mechanical allodynia by measuring decrease in the pressure required to elicit withdrawal of the ipsilateral paw after von Frey filament stimulation at 1.25 mg/kg, ip BID for 11 days from day 13 to day 22; format: functional; conditions: 264 h, time 11 day

T1 sequence (P35372 whole entry): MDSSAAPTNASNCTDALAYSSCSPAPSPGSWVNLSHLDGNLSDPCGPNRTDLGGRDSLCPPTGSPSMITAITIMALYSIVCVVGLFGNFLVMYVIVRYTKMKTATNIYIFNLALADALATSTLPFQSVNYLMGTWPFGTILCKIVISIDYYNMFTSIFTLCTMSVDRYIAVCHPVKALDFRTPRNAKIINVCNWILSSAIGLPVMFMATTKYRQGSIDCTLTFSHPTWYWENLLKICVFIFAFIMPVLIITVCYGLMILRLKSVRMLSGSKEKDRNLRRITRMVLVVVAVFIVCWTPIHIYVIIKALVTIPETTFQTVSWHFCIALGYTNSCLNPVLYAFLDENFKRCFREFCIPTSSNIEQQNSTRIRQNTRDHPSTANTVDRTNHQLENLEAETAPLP

SMILES	inhibition [1] [%]	inhibition [2] [%]	EC50 [3] [µM]	inhibition [4] [%]	Ki [5] [µM]	Ki [6] [µM]	Emax [7] [%]	inhibition at 10 µM [8] [%]	IC50 [9] [µM]	inhibition [10] [%]	inhibition [11] [%]	inhibition [12] [%]	Activity [13]	inhibition in vivo at 1.25 mg/kg [14] [%]
CN1CC2(CCN(CCc3ccccc3)CC2)OC(c2ccccc2)C1=O (stereo unspecified)	< 50	< 50	> 1	26	> 1	0.242	–	–	–	–	–	–	–	–
CC1OC2(CCN(CCc3ccccc3)CC2)CN(C)C1=O (stereo unspecified)	–	–	0.787	16	0.156	0.142	79	< 50	> 10	–	–	–	–	–
CCN1CC2(CCN(CCc3cccc(F)c3F)CC2)O[C@H](C)C1=O	–	–	0.01	8	0.022	0.556	90	< 50	> 10	–	–	–	–	–
CCN1CC2(CCN(CCc3ccccc3F)CC2)O[C@H](C)C1=O	–	–	0.024	15	0.018	0.068	84	–	4	–	–	–	–	–
CN1CC2(CCN(CCc3ccccc3)CC2)OC(C)(C)C1=O	–	< 50	0.624	37	> 1	0.05	–	–	–	–	–	–	–	–
CN1CC2(CCN(CCc3ccccc3)CC2)OC2(CC2)C1=O	–	–	0.442	41	0.221	0.161	85	–	3.6	–	–	–	–	–
Cc1cc(OCCN2CCOCC2)nn1-c1ccc2ccccc2c1	–	–	–	–	–	–	–	< 50	–	< 50	< 50	–	–	–
CN1CC2(CCN(CCc3ccccc3)CC2)OCC1=O	< 50	< 50	> 1	36	> 1	0.282	–	–	–	–	–	–	–	–
CCN1CC2(CCN(CCc3ccc(F)cc3F)CC2)O[C@H](C)C1=O	–	–	0.053	11	0.062	0.094	92	–	2.5	–	–	–	–	–
C[C@@H]1OC2(CCN(CCc3ccccc3)CC2)CN(C)C1=O	–	< 50	1.78	6	> 1	0.165	–	–	–	–	–	–	–	–
CCN1CC2(CCN(CCc3ccc(F)cc3)CC2)O[C@H](C)C1=O	–	–	0.108	21	0.164	0.076	81	–	1.5	–	–	–	–	–
C[C@H]1OC2(CCN(CCc3ccccc3)CC2)CN(C)C1=O	–	–	0.319	19	0.091	0.277	83	< 50	> 10	–	–	–	–	–
O=C1N(c2cccnc2C(F)(F)F)CC2(CCN(CCc3ccccc3F)CC2)OC12CC2	–	–	–	57	–	–	–	< 50	–	–	–	–	–	–
CC(C)C1OC2(CCN(CCc3ccccc3)CC2)CN(C)C1=O (stereo unspecified)	–	–	0.174	29	0.115	0.122	85	–	6.2	–	–	–	–	–
CCN1CC2(CCN(CCc3c(F)cccc3F)CC2)O[C@H](C)C1=O	–	–	0.016	10	0.021	0.609	95	–	–	–	–	–	–	–
CCN1CC2(CCN(CCc3cccc(F)c3)CC2)O[C@H](C)C1=O	–	–	0.056	42	0.056	0.064	83	–	–	–	–	–	–	–
CCN1CC2(CCN(CCc3ccccc3)CC2)OC(C)C1=O (stereo unspecified)	–	–	0.065	27	0.041	0.043	84	–	3.1	–	–	–	–	–
CCN1CC2(CCN(CCc3ccccn3)CC2)OC2(CC2)C1=O	–	–	1.5	0	> 1	0.783	–	–	–	–	< 50	–	–	–
CC1OC2(CCN(CCc3ccccc3)CC2)CN(CCc2ccccc2)C1=O (stereo unspecified)	–	–	0.022	58	0.02	–	94	–	0.2	–	–	–	–	–
CC1OC2(CCN(CCc3ccccc3)CC2)CN(c2ccccc2)C1=O (stereo unspecified)	–	–	–	72	–	–	85	–	–	–	–	–	–	–
CC1OC2(CCN(CCc3ccccc3)CC2)CN(CCc2ccccc2F)C1=O (stereo unspecified)	< 50	< 50	> 1	7	> 1	0.892	–	< 50	> 10	–	–	–	–	–
CC[C@H]1OC2(CCN(CCc3ccccc3)CC2)CN(C)C1=O	–	–	0.505	13	0.192	0.139	90	–	6.6	–	–	–	–	–
CCN1CC2(CCN(CCc3ccccc3)CC2)O[C@H](C)C1=O	–	–	0.049	14	0.026	0.066	83	–	4.7	–	–	–	–	–
COc1ccc2c3c1O[C@H]1C(=O)CC[C@@]4(O)[C@@H](C2)N(C)CC[C@]314 [OXYCODONE]	–	–	–	–	–	–	–	< 50	> 10	–	–	< 50	Toxic	51
C[C@H]1OC2(CCN(CCc3ccccc3)CC2)CN(C2CC2)C1=O	–	–	0.007	51	0.006	–	91	–	4.5	–	–	–	–	–
CCN1CC2(CCN(CCc3cc(F)ccc3F)CC2)O[C@@H](C)C1=O	–	–	–	9	–	–	–	< 50	> 10	–	–	–	–	–
CC1OC2(CCN(CCc3ccccc3)CC2)CN(C(C)C)C1=O (stereo unspecified)	–	–	0.021	35	0.033	0.03	100	–	3.9	–	–	–	–	–
CC1OC2(CCN(CCc3ccccc3)CC2)CN(Cc2ccccc2)C1=O (stereo unspecified)	–	–	0.002	67	0.002	0.01	97	–	0.1	–	–	–	–	–
